We go through 21 compounds from patent US20240124434A1, “ATF6 INHIBITORS AND USES THEREOF” (Altos Labs, Inc., priority 2018, published 2024).

Like-named read-outs stand apart in the source and are kept apart here.

The assay has as its system ATF6. The experiment in a line: ERSE ATF6-luciferase reporter assay (thapsigargin-induced ER stress). Format: cell-based, human. The conditions noted are these: Homo sapiens, U2OS; for inhibition at 1 µM: 8 h. Here is the method: Human bone osteosarcoma (U2-OS) cells were obtained from the American Type Culture Collection (ATCC HTB-96, ATCC Manassas, VA) and were cultured with growing medium containing Dulbecco's Modified Eagle's Medium (DMEM) (Cat. No.:SH30023.02, HyClone) supplemented with fetal bovine serum (FBS) 10% (Cat. No.: 16000044, Gibco) and 1% penicillin-streptomycin antibiotic cocktail (Cat. No.: SV30010, Hyclone).
Cignal Lenti ATF6 luc reporter (Qiagen #CLS-6031L) was used to produce a stable cell line in U2-OS cells. […] The number of response elements as well as the intervening sequence between response elements has been experimentally optimized to maximize the signal to noise ratio.
Compounds were prepared as 10 mM stock solutions and stored at −80° C.
U2-OS ATF6 luc reporter cells were thawed 3-4 days and split once prior to assays. […] At the day of experiment, cells were pre-treated for 30 min with 50 μL growing medium containing either vehicle (dimethyl sulfoxide (DMSO)) (Cat. No.: D2650, Sigma-Aldrich) or 1 μM test compound. After the pre-incubation time, 50 μL of a solution containing 0.2 μM thapsigargin (Tg)(an ER stress inducer) was added to respective wells. This Tg solution also contained vehicle or test compounds at 1 μM. The final concentration of DMSO in each well was kept at 0.3%. Plates were incubated for 8 hr in humidified chambers.
Finally, after 8 hr, plates were cooled to room temperature for 10 min prior to luciferase assays. Luciferase reactions were performed using Luciferase Assay System (Cat. No.: E4550, Promega). Briefly, each well was washed with 100 μl of PBS1X and then 20 μl of lysis reagent were added into each well. Plates were shaken for 10 min, then 50 μl of Luciferase Assay Reagent were added to each well and luminescence was read with an integration time of 1 s and a gain of 110 in a Synergy 4 Microplate reader.
For the assessment of the half-maximal inhibitory concentration (IC50) for selected compounds, dose-response assays were performed. Compounds were serially diluted using DMSO starting at 30 μM until 1 nM. The assays were run as described above.
On the technique in general: Reporter assays use an easily measured gene product as a stand-in for the process of interest.

Where [1] appears, read: 1 μM test compound, thapsigargin-induced ER stress, U2-OS ATF6 luc reporter cells, 8 hr, read-out: Inh. ATF6-Luc @ 1 μM [%].
Setting [2] is: dose-response 30 μM to 1 nM, thapsigargin-induced ER stress, U2-OS ATF6 luc reporter cells, read-out: IC50 ATF6-Luc reporter.
Setting [3] is: read-out: Inh. ATF6-Luc @ 1 μM [%], 1 μM test compound, thapsigargin-induced ER stress, U2-OS ATF6 luc reporter cells, 8 hr.
The mark [4] stands for this setting: read-out: IC50 ATF6-Luc reporter [μM], dose-response 30 μM to 1 nM, thapsigargin-induced ER stress, U2-OS ATF6 luc reporter cells.

Take `C[C@H](c1ccc(C(F)(F)F)cc1C(F)(F)F)n1cc(NC(=O)c2cnccn2)cn1` [Compound 142, (R)—N-(1-(1-(2,4-bis(trifluoromethyl)phenyl)ethyl)-1H-pyrazol-4-yl)pyrazine-2-carboxamide]: the inhibition at 1 µM under setting [1] was less than 25%. The IC50 (usually the concentration at which inhibition is half-maximal) under setting [2] is more than 10 µM.

Regarding `O=C(Nc1cnn(Cc2c(Cl)cccc2Cl)c1)c1cc(-c2ccccn2)on1` [Compound 146, N-(1-(2,6-dichlorobenzyl)-1H-pyrazol-4-yl)-5-(pyridin-2-yl)isoxazole-3-carboxamide], under setting [1], the inhibition at 1 µM is less than 25%. In addition, the IC50 under setting [2] is more than 10 µM.

With `C[C@@H](c1ccc(C(F)(F)F)cc1C(F)(F)F)n1cc(NC(=O)c2cn(-c3ccccn3)nn2)cn1` [Compound 122, (S)—N-(1-(1-(2,4-bis(trifluoromethyl)phenyl)ethyl)-1H-pyrazol-4-yl)-1-(pyridin-2-yl)-1H-1,2,3-triazole-4-carboxamide], the inhibition at 1 µM under setting [3] was less than 25%. The IC50 under setting [4] is more than 10 µM.

With `CC(c1ccc(C(F)(F)F)cc1C(F)(F)F)n1cc(NC(=O)c2cnc(-c3ccco3)s2)cn1` (stereo not drawn) [Compound 80, N-(1-(1-(2,4-bis(trifluoromethyl)phenyl)ethyl)-1H-pyrazol-4-yl)-2-(furan-2-yl)thiazole-5-carboxamide], the inhibition at 1 µM under setting [1] is less than 25%. Further, the IC50 under setting [2] is more than 10 µM.

On to `Cc1nn(-c2ccc(C(F)(F)F)cc2C(F)(F)F)cc1NC(=O)/C=C/c1ccco1` [Compound 87, (E)—N-(1-(2,4-bis(trifluoromethyl)phenyl)-3-methyl-1H-pyrazol-4-yl)-3-(furan-2-yl)acrylamide], for which the inhibition at 1 µM under setting [1] was less than 25%. Moreover, the IC50 under setting [2] was more than 10 µM.

As for `Cc1c(C(=O)Nc2cnn(Cc3ccc(C(F)(F)F)cc3C(F)(F)F)c2)noc1-c1ccccn1` [Compound 135, N-(1-(2,4-bis(trifluoromethyl)benzyl)-1H-pyrazol-4-yl)-4-methyl-5-(pyridin-2-yl)isoxazole-3-carboxamide], the inhibition at 1 µM under setting [1] was 25 to 50%. In addition, under setting [2], the IC50 was more than 10 µM.

On to `O=C(Nc1cnn(Cc2ccc(C(F)(F)F)cc2C(F)(F)F)c1)c1cncc(-c2ccccc2)c1` [Compound 21, N-(1-(2,4-bis(trifluoromethyl)benzyl)-1H-pyrazol-4-yl)-5-phenylnicotinamide], for which the inhibition at 1 µM under setting [1] was less than 25%. In addition, under setting [2], the IC50 was more than 10 µM.

Regarding `C[C@H](c1ccc(C(F)(F)F)cc1C(F)(F)F)n1cc(NC(=O)c2ccccn2)cn1` [Compound 140, (R)—N-(1-(1-(2,4-bis(trifluoromethyl)phenyl)ethyl)-1H-pyrazol-4-yl)picolinamide], under setting [1], the inhibition at 1 µM is less than 25%. In addition, the IC50 under setting [2] was more than 10 µM.

For `C[C@H](c1ccc(C(F)(F)F)cc1F)n1cc(NC(=O)c2cc(-c3ccccn3)on2)cn1` [Compound 108, (R)—N-(1-(1-(2-fluoro-4-(trifluoromethyl)phenyl)ethyl)-1H-pyrazol-4-yl)-5-(pyridine-2-yl)isoxazole-3-carboxamide], the inhibition at 1 µM under setting [1] is less than 25%. For the same compound, under setting [2], the IC50 was more than 10 µM.

Regarding `O=C(Nc1cnn(Cc2ccc(C(F)(F)F)cc2C(F)(F)F)c1)c1cc(-c2ccc(F)cc2F)on1` [Compound 16, N-(1-(2,4-bis(trifluoromethyl)benzyl)-1H-pyrazol-4-yl)-5-(2,4-difluorophenyl)isoxazole-3-carboxamide], under setting [1], the inhibition at 1 µM was less than 25%. Further, the half-inhibitory concentration (IC50) under setting [2] is more than 10 µM.

`O=C(Nc1cnn(Cc2ccc(C(F)(F)F)cc2C(F)(F)F)c1)c1ccon1` [Compound 23, N-(1-(2,4-bis(trifluoromethyl)benzyl)-1H-pyrazol-4-yl)isoxazole-3-carboxamide]: under setting [1], the inhibition at 1 µM was less than 25%. Moreover, under setting [2], the IC50 is more than 10 µM.

In the case of `C[C@@H](c1ccc(C(F)(F)F)cc1C(F)(F)F)n1cc(NC(=O)c2cnc(-c3ccccn3)s2)cn1` [Compound 105, (S)—N-(1-(1-(2,4-bis(trifluoromethyl)phenyl)ethyl)-1H-pyrazol-4-yl)-2-(pyridin-2-yl)thiazole-5-carboxamide], the inhibition at 1 µM under setting [3] is less than 25%. Under setting [4], the IC50 is more than 10 µM.

On to `C[C@H](c1ccc(C(F)(F)F)cc1C(F)(F)F)n1cc(NC(=O)c2coc(-c3ccccn3)n2)cn1` [Compound 125, (R)—N-(1-(1-(2,4-bis(trifluoromethyl)phenyl)ethyl)-1H-pyrazol-4-yl)-2-(pyridin-2-yl)oxazole-4-carboxamide], for which the inhibition at 1 µM under setting [1] is less than 25%. The IC50 under setting [2] was more than 10 µM.

In the case of `C[C@H](c1ccc(C(F)(F)F)cc1C(F)(F)F)n1cc(NC(=O)c2nnc(-c3ccncn3)s2)cn1` [Compound 156, (R)—N-(1-(1-(2,4-bis(trifluoromethyl)phenyl)ethyl)-1H-pyrazol-4-yl)-5-(pyrimidin-4-yl)-1,3,4-thiadiazole-2-carboxamide], the inhibition at 1 µM under setting [1] lay in the range of 25 to 50%. The 50% inhibitory concentration (IC50) under setting [2] was less than 1 µM.

For the compound `O=C(Nc1cnn([C@@H]2CCc3ccccc32)c1)c1cc(-c2ccco2)on1` [Compound 149, (R)—N-(1-(2,3-dihydro-1H-inden-1-yl)-1H-pyrazol-4-yl)-5-(furan-2-yl)isoxazole-3-carboxamide], the inhibition at 1 µM under setting [1] is less than 25%. The IC50 under setting [2] is more than 10 µM.

Consider `CC(c1ccc(C(F)(F)F)cc1C(F)(F)F)n1cc(NC(=O)c2cc(-c3ccccn3)nn2C)cn1` (stereo not drawn) [Compound 112, N-(1-(1-(2,4-bis(trifluoromethyl)phenyl)ethyl)-1H-pyrazol-4-yl)-1-methyl-3-(pyridin-2-yl)-1H-pyrazole-5-carboxamide], for which, under setting [1], the inhibition at 1 µM fell in the range of 25 to 50%. The IC50 under setting [2] was more than 10 µM.

Turning to `CC(c1ccc(C(F)(F)F)cc1C(F)(F)F)n1cc(NC(=O)c2csc(-c3ccccn3)n2)cn1` (stereo not drawn) [Compound 79, N-(1-(1-(2,4-bis(trifluoromethyl)phenyl)ethyl)-1H-pyrazol-4-yl)-2-(pyridin-2-yl)thiazole-4-carboxamide], where the note is “read-out: Inh. ATF6-Luc @ 1 μM [%]”, the inhibition at 1 µM is less than 25%. For the setting “read-out: IC50 ATF6-Luc reporter [μM]”, the concentration for half-maximal inhibition (IC50) was more than 10 µM.

For `CC(=O)c1cc(C(=O)Nc2cnn(Cc3ccc(C(F)(F)F)cc3C(F)(F)F)c2)no1` [Compound 3, 5-acetyl-N-(1-(2,4-bis(trifluoromethyl)benzyl)-1H-pyrazol-4-yl)isoxazole-3-carboxamide], under setting [1], the inhibition at 1 µM is less than 25%. The IC50 under setting [2] was more than 10 µM.

As to `C[C@H](c1ccc(C(F)(F)F)cc1C(F)(F)F)n1cc(NC(=O)c2nnc(-c3ccco3)s2)cn1` [Compound 160, (R)—N-(1-(1-(2,4-bis(trifluoromethyl)phenyl)ethyl)-1H-pyrazol-4-yl)-5-(furan-2-yl)-1,3,4-thiadiazole-2-carboxamide], the inhibition at 1 µM under setting [1] is less than 25%. Besides, under setting [2], the IC50 is more than 10 µM.

In the case of `C[C@@H](c1ccc(C(F)(F)F)cc1C(F)(F)F)n1cc(NC(=O)c2cnccn2)cn1` [Compound 141, (S)—N-(1-(1-(2,4-bis(trifluoromethyl)phenyl)ethyl)-1H-pyrazol-4-yl)pyrazine-2-carboxamide], the inhibition at 1 µM under setting [1] is less than 25%. Besides, under setting [2], the IC50 was more than 10 µM.

Turning to `O=C(Nc1cn(Cc2ccc(C(F)(F)F)cc2C(F)(F)F)cn1)c1cc(-c2ccco2)on1` [Compound 17, N-(1-(2,4-bis(trifluoromethyl)benzyl)-1H-imidazol-4-yl)-5-(furan-2-yl)isoxazole-3-carboxamide], the inhibition at 1 µM under setting [1] is less than 25%. Besides, under setting [2], the IC50 is more than 10 µM.
